Test results from patent US8604048B2, “Pyridocarbazole type compounds and applications thereof” (Centre National de la Recherche Scientifique, priority 2009, dated 2013).

Key:
[1] = system: mitochondria of HeLa cells; test: Effect on location and morphology of the mitochondria (MitoTracker staining); assay type: cell-based, Human; details: 2 h of treatment at 25 μM
Procedure: As for tubulin staining, the cells are grown on glass coverslips and incubated at 37° C. with 5% CO2. Three days after seeding, MitoTracker® Red CMXRos (Molecular Probes, Invitrogen) is added to the culture medium in order to reach a final concentration of 250 nM. The cells are then incubated for 30 minutes at 37° C. with 5% CO2. This marker passively diffuses through the plasma membrane and accumulates into the active mitochondria. After elimination of the medium, the cells are washed with warm medium then fixed by addition of a solution of PBS/3.7% formaldehyde for 30 minutes at 37° C. The cells are rinsed with PBS, then can be permeabilized with a solution of PBS/0.2% Triton X100 for 15 minutes at room temperature if other immunofluorescence staining are needed.

[2] = system: HeLa cells; test: Cell growth test (MTT), HeLa; assay type: cell-based; details: Homo sapiens, MTT test after 48 h, read-out: IC50 (concentration necessary to inhibit 50% of cell growth)
Procedure: The cell growth tests are carried out in transparent 96-well microplates (Greiner) after having seeded 100 μl/well of a cell solution having 2·10^5 cells/ml to 5·10^5 cells/ml (depending on the cell lines). After incubating for 24 h at 37° C. with 5% CO2, the culture medium is removed and replaced with solutions of the molecule to be tested at various concentrations. The cells are incubated with these molecules for an additional 48 h at 37° C. with 5% CO2. After elimination of the medium, the cells are washed with blank RPMI (Gibco, Invitrogen) then incubated with 3-(4,5-dimethylthiazol-2-yl)-2,5-diphenyltetrazolium bromide or MTT (0.5 mg/ml final concentration) for 4 h at 37° C. with 5% CO2. MTT (Sigma Aldrich) makes it possible to estimate the viability of the cells by measuring the activity of a mitochondrial enzyme. Indeed, in living cells, mitochondrial dehydrogenases are capable of cleaving the tetrazolium ring, thus leading to the formation of formazan crystals that are insoluble in an aqueous medium. These crystals are dissolved with the addition of a solubilizing solution (isopropanol, 10% Triton X100, 0.1 N HCl). After stirring, the absorbance is measured at 570 nm using the FLUOstar OPTIMA microplate reader. […]
The viability of the cells was evaluated using an MTT test after 48 h of exposure with various concentrations of molecules (from 100 μM to 0.001 μM). […]

[3] = system: microtubules of HeLa cells; test: Stability of the microtubules in cells, qualitative double-blind evaluation using a microscope; assay type: cell-based, Human; details: general statement
Procedure: 6. a step of analysis of the effect of the compound to be tested on the dynamics of the microtubule network. For this, HeLa cells are incubated for 2 h with the compound to be tested, then optionally treated with 10 μM nocodazole for 30 minutes.
Cells grown for two days on glass coverslips, were incubated 3 minutes at 37° C. with or without OPT buffer (Pipes 80 mM, EGTA 1 mM, MgCl 1 mM, Triton X-100 0.5% and glycerol 10% pH 6.8), and then fixed in methanol previously maintained at −20° C. for 10 minutes. The cells are then washed with PBS/0.1% Tween® 20 and incubated for 15 minutes minimum at room temperature with the appropriate primary antibodies (cf. the antibodies from Table III) diluted in a solution of PBS/0.3% BSA/0.02% NaN3. The cells are then washed 3 times with PBS/0.1% Tween® 20. They are incubated for 15 minutes at room temperature with a solution of secondary antibodies (cf. the antibodies from Table IV) and of Hoechst at a final concentration of 1 μg/ml, diluted in PBS/0.3% BSA/0.02% NaN3. […]
HeLa cells are seeded in black-bottomed black 96-well microplates (Greiner 655086) by distributing 90 μl per well of a cell solution containing 40 000 cells/ml, and incubated at 37° C. with 5% CO2. […] The various fluorescence intensities are measured using the FLUOstar OPTIMA reader. […]

Row | SMILES | Mitochondrial phenotype of sodium azide type [1] | IC50 [2] | Effect on the stabilization of cell microtubules [3]
1 | Cc1c2cc[nH]c(=O)c2c(C)c2c1[nH]c1ccc(OC(=O)c3ccccc3)cc12 [Compound 1, 9-benzoyloxy-5,11-dimethyl-2H,6H-pyrido[4,3-b]carbazol-1-one] | does not induce the mitochondrial phenotype | 1210 nM | –
2 | Cc1c2ccncc2c(C)c2c1[nH]c1ccccc12 [ellipticine] | – | – | does not have any effect
